Results from EP3501540A1, “MITOCHONDRIAL TRIFUNCTIONAL PROTEIN (MTP) INHIBITORS FOR USE IN THE TREATMENT OF HIGH MITOCHONDRIAL RESPIRATION (OX+) CANCERS” (UNIVERSITE DE BORDEAUX, priority 2017, dated 2019).

Tests used:
[1] = test system: A549 (OX+) cells; assay: Sulphorodamine B viability assay; format: cell-based, human; conditions: A549 (OX+) cells in vitro
Description: A549_LUC and H460_LUC, human lung cancer cells, were stably transfected with luciferase (pRRLsin-MND-Luc-WPRE). […] Also, they were tested as luciferase positive using direct application of 2 mL of a 150 mg/ml solution of luciferine (Firefly Luciferin, Caliper Lifescience Corp, USA), followed by immediate bioluminescent imaging using the photonIMAGER™ optima system.
(§1) Briefly, cells were seeded in 96-well plates and medium was changed after 24 h, then Test Reagent was added on top of the cell wells and incubated for up to 72h. The viability assay was performed using Sulforhodamine B colorimetric assay for viability assay following the protocol described by Vanicha Vichai & Kanyawim Kirtikara.

[2] = test system: H460 cells; assay: Sensitivity to chemotherapeutic drugs; format: cell-based, human; conditions: H460 cells compared with A549 cells; data not shown
[3] = test system: HADHA; assay: HADHA expression in cells; format: cell-based, human; conditions: A549 cells; LiCl 20 mM
Description: Cells pellet were lysed in a buffer containing RIPA IX (Sigma-Aldrich) and protease inhibitors cocktail (chymostatin, leupeptin, antipain, pepstatin A - Sigma-Aldrich). Protein lysates were placed on ice for 15 min, vortexed and cleared by centrifugation at 12,000 × g for 15 min at 4 °C. The supernatants were retrieved and frozen at -80 °C until use. Protein concentration was performed using the Pierce™ BCA Protein Assay Kit.
Samples (20ug) were dissolved in Laemmli buffer (Bio-Rad) containing 2% mercaptoethanol by incubation for 15 min at 65°C and separated on a 4-15% SDS-polyacrylamide gradient TGX STAIN FREE mini-gel (Biorad). The gels are activated by UV with chemidoc (Biorad). Proteins were transferred electrophoretically to 0.45 µm of nitrocellulose membranes for 7 min at 2.5 Amp in Transfert buffer with Trans-Blot Turbo (biorad). Membranes were blocked 1h in odyssey buffer (eurobio) and incubated overnight in a mixture of antibodies diluted in odyssey buffer. After three washes with PBS-0.05% Tween 20, the membranes were incubated for 1 h with second antibody (LYCOR) diluted in odyssey buffer. This secondary antibody was detected by fluorescence with odyssey. Proteins were detected using specific antibodies (abcam) and total protein was used as the loading control. Primary antibodies (abcam®) against HADHA, VLCAD, mt-ETFA, mt-ETFB, NDUFS2 and NDUFAB1.

[4] = test system: A549 cells; assay: ATP measurement (CellTiter-Glo); format: cell-based, human; conditions: 500µM for 48H
Description: The ATP content was performed using the The CellTiter-Glo® Luminescent Cell Viability Assay (Promega) folowing manufacturer's instructions. Luminescence was read on a spectramax M4 Multi-Mode Microplate Reader (Molecular Devices) and values were calculated based on an ATP standard curve. The assay was normalized to cell number.

[5] = test system: H460 (OX-) cells; assay: Sulphorodamine B viability assay; format: cell-based, human; conditions: H460 (OX-) cells in vitro
Description: A549_LUC and H460_LUC, human lung cancer cells, were stably transfected with luciferase (pRRLsin-MND-Luc-WPRE). The cells were maintained in DMEM medium (Gibco) 11885-084 and 11965-092 respectively, supplemented with 10% fetal bovine serum (FBS), pH 7.4 at 37°C in a humidified incubation chamber with 5% CO2. Cells were sub-cultured every 2 days and used on experiments when they reached 85% confluency. Also, they were tested as luciferase positive using direct application of 2 mL of a 150 mg/ml solution of luciferine (Firefly Luciferin, Caliper Lifescience Corp, USA), followed by immediate bioluminescent imaging using the photonIMAGER™ optima system.
as §1

[6] = test system: A549 (OX+) cells; assay: NAD/NADH determination; format: cell-based, human; conditions: 500µM for 48H
Description: The NAD/NADH was measure using the NAD/NADH Colorimetric assay Kit (abcam), according to the manufacturer's instructions. At 25°C absorbance was measured at 450 nm and the value used to calculate the ratio. The assay was normalized to cell number.

[7] = test system: respiratory chain complex I; assay: Complex I enzymatic activity assay (spectrophotometric); format: biochemical, human; conditions: A549 cells: 500 µM Trimetazidine 48H; cell homogenate: 100 µM palmitoyl-Coa, 10 min incubation
Description: Enzymatic activities were measured spectrophotometrically, in homogenate of cells using the following reaction media: Complex I - 50mM potassium phosphate buffer, 100µM Decylubiquinone. The reaction was started by the addition of 100µM NADH and carried out at 37°C for 15 min in 340nm. After the stabilization of the signal was added 12,5µM Rotenone. Complex II - 25mM potassium phosphate buffer, 1mM KCN, 100µM ATP, 50µM DCPIP, 20mM succinate. The reaction was started by the addition of 100µM decylubiquinone and carried out at 37°C for 15 min in 660nm. Complex III - 100mM potassium phosphate buffer, 50µM cytochrome c, 250µM EDTA. The reaction was started by the addition of 100µM decylubiquinol and carried out at 37°C for 15 min in 550nm. After the stabilization of the signal was added 12,5µg/ml antimycin A. Complex IV - 100uM reduced cytochrome C in 50mM potassium phosphate buffer. The reaction was started by the addition of homogenate of cells and carried out at 37°C for 15 min in 550nm.

[8] = test system: Complex I subunits; assay: Quantitative proteome analysis of complex I subunits; format: cell-based, human; conditions: A549 cells
[9] = test system: A549 cells expressing luciferase; assay: Orthotopic mouse model of human lung OX+ adenocarcinoma, bioluminescence imaging; format: in vivo, mice; conditions: luminescence imaging at day 3 and day 18; Trimetazidine 20mg/kg/day
Excerpt: (§2) All procedures using animals were approved by the Animal Care and Use Ethics Committee of the University of Bordeaux. The NOD/LtSz-scid/IL-2Rychain^null (NSG) mice were produced and housed in the University Bordeaux Segalen animal facility, according to the rules and regulations governed and enforced by the Institutional Animal Care and Use Committee. The animal facility institutional agreement number is A33063916. Animals were included in protocols between 6 and 8 weeks old. Mice were monitored weekly for body weights and were also examined for aspect and behavior during the time-course of the experiments. No changes were noticed except otherwise indicated.
(§3) The orthotopic mouse models of OX+ or OX- human LUAD were obtained by using luciferase expressing clones of A549 or H460 lung adenocarcinoma cell lines, respectively. Groups of 5 mice were anesthetized with isoflurane and 1 × 10^6 cells in a volume of 100µl were injected in the lung of 8-weeks NGS mice and imaged 20 min after injection. Bioluminescence imaging (BLI) was performed on a Bioimager following intraperitonal injection of 150 mg/kg of D-Luciferin (Interchim, Montluçon, France). After 10 min, mice were anesthetized by isoflurane and placed into a photon bioimager (BIOSPACE LAB, Paris, France) for about 20 min to acquire luminescence images. Signals were quantified with the M3Vision software (BIOSPACE LAB). […]

[10] = test system: human lung OX- H460 adenocarcinoma; assay: Orthotopic mouse model of human lung OX- adenocarcinoma; format: in vivo, mice; conditions: 20 mg/kg daily
Excerpt: as §2, §3

[11] = test system: A549 (OX+) cells; assay: Oxygen consumption by high-resolution respirometry; format: cell-based, human; conditions: 500µM for 48H
Description: O2 consumption rates were measured polarographically using high-resolution respirometry (Oroboros Oxygraph-O2K). After the treatment period, medium was removed and cells were either suspended in DMEM in the presence of glucose or not for measurements of O2 consumption of intact cells, or in the respiration medium pH 7.2 (mannitol 0.25 M, MgCl2 10 mM, KH2PO4 10 mM, HEPES 10 mM, EDTA 0.08 mM, EGTA 1 mM and fatty acid free BSA 0.1%) for evaluation of respiratory complexes of permeabilized cells. Routine consumption, oligomycin-independent respiration (proton leak), FCCP-stimulated respiration (ETS capacity - maximum respiration) and ROX (oxygen consumption in presence of rotenone and antimicyn A) were measured in intact […] cells. All the values were corrected by ROX. The respiratory activity of ETF of digitonin 0.0015%-permeabilized lung cancer cells were performed following the addition of palmitoyl-carnitine 25 µM (ETF-linked substrate), rotenone 0.5 µM, ADP 100 µM. DatLab software (Oroboros Instruments, Innsbruck, Austria) was used for data acquisition and analysis.

[12] = test system: A549 cells; assay: Incorporation of [13C]-palmitate in Krebs cycle by mass spectrometry; format: cell-based, human; conditions: after 2 hours
Description: The incorporation of palmitate in Krebs cycle was followed at the level of citrate using mass spectrometry. A549 cells grown in low glucose DMEM were washed twice with PBS and resuspended in PBS containing 2 mm [U-13C]palmitate with (10 mm) glucose.
The cells were incubated for 2 h at 27 °C before fast filtration preparation of the samples for mass spectrometry analysis. Metabolites were analyzed by ionic-exchange chromatography coupled with tandem mass spectrometry (IC-MS/MS) using the method described by Bolten et al. Retention time on the column and multiple reaction monitoring (MRM) transition of each analyzed metabolite are known by the one skilled in the art.
The ^13C mass isotopomer distribution of intracellular metabolites was determined from relevant isotopic clusters in the IC-MS/MS analysis, according to Kiefer et al. ^13C mass isotopomer distribution measurements were performed using a triple quadrupole mass spectrometer (4000Qtrap, Applied Biosystems). To obtain ^13C-labeling patterns (^13C isotopologues), isotopic clusters were corrected for the natural abundance of isotopes other than 13C, using the in-house software IsoCor (available at MetaSys).

[13] = Mass spectrometry lipidomic analysis of blood; format: in vivo, mice; conditions: 20mg/kg/day, day 7
Description: (§4) Extracted samples were dissolved in 100 µL CHC13; 15 µL was injected for analysis. LC separation was achieved using a Bio-Bond 5U C4 column (Dikma). The LC solvents were as follows: buffer A, 95:5 H2O:methanol + 0.03% NH4OH; buffer B, 60:35:5 isopropanol:methanol:H2O + 0.03% NH4OH. A typical LC run consisted of the following for 70 min after injection: 0.1 mL/min 100% buffer A for 5 min, 0.4 mL/min linear gradient from 20% buffer B to 100% buffer B over 50 min, 0.5 mL/min 100% buffer B for 8 min and equilibration with 0.5 mL/min 100% buffer A for 7 min. FFA analysis was performed using a Thermo Scientific Q Exactive Plus fitted with a heated electrospray ionization source. The MS source parameters were 4 kV spray voltage, with a probe temperature of 437.5 °C and capillary temperature of 268.75 °C. Full-scan MS data was collected with a resolution of 70 k, AGC target 1 × 106, maximum (max) injection time of 100 ms and a scan range of 150-2,000 m/z. […] Extracted ion chromatograms for each FFA were generated using a m/z ± 0.01 mass window around the calculated exact mass (i.e., palmitic acid, calculated exact mass for M-H is 255.2330, and the extracted ion chromatogram was 255.22-255.24). Quantification of the FFAs was performed by measuring the area under the peak and dividing this number by the area under the peak for [^13C16]palmitate. […]

[14] = test system: A549 cells; assay: Mass spectrometry lipidomic analysis of cells; format: cell-based, human; conditions: inside A549 cells
Description: as §4

[15] = test system: H460 cells; assay: Mass spectrometry lipidomic analysis of cells; format: cell-based, human; conditions: 48 hours
Description: as §4

COc1ccccc1OCC(O)CN1CCN(CC(=O)Nc2c(C)cccc2C)CC1 (racemic) [Ranolazine, (±)-N-(2,6-dimethylphenyl)-4-[2-hydroxy-3-(2-methoxyphenoxy)-propyl]-1-piperazineacetamide]
cell viability [1]: dose-dependent loss

O=c1[nH]cc(F)c(=O)[nH]1 [5-fluorouracile]
sensitivity to the chemotherapeutic drugs [2]: higher sensitivity

COC(=O)c1cccc(NS(=O)(=O)c2ccc(C)cc2)c1 [MSAB, methyl 3-{[(4-methylphenyl)sulfonyl]amino}benzoate]
expression of HADHA [3]: opposite effect

COc1ccc(CN2CCNCC2)c(OC)c1OC [Trimetazidine, 1-(2,3,4-trimethoxybenzyl)piperazine]
cellular ATP content [4]: altered
cell viability [1]: Dose-dependent reduction
cell viability [5]: no effect
NADH redox state (NAD+/NADH ratio) [6]: altered
respiratory chain complex I activity [7]: inhibition
content of 15 Complex I subunits [8]: significant reduction
Complex I intermediate-associated protein 30 (CIA30; NDUFAF1) ([8]; after 4 hours of treatment): completely degraded
tumor size [9]: Reduction of tumor size
effect on OX- tumors [10]: no effect
mitochondrial respiration [11]: inhibited
incorporation of [^13C]-palmitate in the Krebs cycle ([^13C]citrate isotopomers) [12]: significant reduction
Fatty-acids accumulation in the blood ([13]; OX+ mice): accumulation
level of hydroxylated fatty acids (C18-OH, C18-1OH, C18-2OH, C16OH, C14OH) ([13]; blood of OX+ mice): increased
accumulation of unprocessed fatty-acids [14]: accumulation
accumulation of unprocessed fatty-acids [15]: not

COc1cccc2c1C(=O)c1c(O)c3c(c(O)c1C2=O)C[C@@](O)(C(=O)CO)C[C@@H]3O[C@H]1C[C@H](N)[C@H](O)[C@H](C)O1 [doxorubicin]
sensitivity to the chemotherapeutic drugs [2]: higher sensitivity

COc1cc([C@@H]2c3cc4c(cc3[C@@H](O[C@@H]3O[C@@H]5CO[C@@H](C)O[C@H]5[C@H](O)[C@H]3O)[C@H]3COC(=O)[C@H]23)OCO4)cc(OC)c1O [etoposide]
sensitivity to the chemotherapeutic drugs [2]: higher sensitivity

CCCCCCCCCCCCCCCC(=O)SCCNC(=O)CCNC(=O)[C@H](O)C(C)(C)COP(=O)(O)OP(=O)(O)OC[C@H]1O[C@@H](n2cnc3c(N)ncnc32)[C@H](O)[C@@H]1OP(=O)(O)O [palmitoyl-CoA]
respiratory chain complex I activity [7]: inhibition

lithium-chloride
expression of HADHA [3]: stimulated
